{"source": "patent US9951028B2", "about": "“Agricultural chemicals” (REDAG CROP PROTECTION LTD, priority 2013, dated 2018)", "key": {"[1]": {"tested_on": "common chickweed, Stellaria media", "test": "Herbicidal efficacy screen, potter tower spray, necrosis assessed", "type": "in vivo", "description": "(§1) Compounds 22, 23 and 24 were screened for herbicidal efficacy against target plants: garden cress, Lepidium sativum, common chickweed, Stellaria media, and white mustard […] alba Plants were obtained as seeds and were grown to the 2-4 true leaf stage. Plants were grown under laboratory conditions, individually in seed trays. Each plant (in an approximately 3 cm diameter plug) was then detached from the tray for spraying. The compounds were screened at a range of five concentrations, diluted in acetone and TweenTM. A carrier only control was also conducted. Treatments were applied directly onto the plants, using a potter tower, at a specified application rate. One plant of each species was sprayed using a potter tower. The 3 different types of plants were placed on a 10 cm diameter platform directly beneath the potter sprayer and sprayed simultaneously. The growth of the plants and any Phytotoxicity effects were then assessed at intervals over 21 days, according to EPPO guideline PP1/135. Five replicas were performed for each treatment, for each species. In the tables below C represents a percentage increase in necrosis relative to the control of 0.1-50; B represents a percentage inhibition of 50-80; and A represents a percentage inhibition of 80-100."}, "[2]": {"tested_on": "garden cress, Lepidium sativum", "test": "Herbicidal efficacy screen, potter tower spray, necrosis assessed", "type": "in vivo", "description": "as §1"}, "[3]": {"details": "12.5 g/ha, day 1 post application"}, "[4]": {"details": "12.5 g/ha, day 2 post application"}, "[5]": {"details": "12.5 g/ha, day 3 post application"}, "[6]": {"details": "12.5 g/ha, day 4 post application"}, "[7]": {"details": "12.5 g/ha, day 5 post application"}, "[8]": {"details": "12.5 g/ha, day 7 post application"}, "[9]": {"details": "12.5 g/ha, day 10 post application"}, "[10]": {"details": "25 g/ha, day 1 post application"}, "[11]": {"details": "25 g/ha, day 2 post application"}, "[12]": {"details": "25 g/ha, day 3 post application"}, "[13]": {"details": "25 g/ha, day 4 post application"}, "[14]": {"details": "25 g/ha, day 5 post application"}, "[15]": {"details": "25 g/ha, day 7 post application"}, "[16]": {"details": "25 g/ha, day 10 post application"}, "[17]": {"details": "50 g/ha, day 1 post application"}, "[18]": {"details": "50 g/ha, day 2 post application"}, "[19]": {"details": "50 g/ha, day 3 post application"}, "[20]": {"details": "50 g/ha, day 4 post application"}, "[21]": {"details": "50 g/ha, day 5 post application"}, "[22]": {"details": "50 g/ha, day 7 post application"}, "[23]": {"details": "50 g/ha, day 10 post application"}, "[24]": {"details": "100 g/ha, day 1 post application"}, "[25]": {"details": "100 g/ha, day 2 post application"}, "[26]": {"details": "100 g/ha, day 3 post application"}, "[27]": {"details": "100 g/ha, day 4 post application"}, "[28]": {"details": "100 g/ha, day 5 post application"}, "[29]": {"details": "100 g/ha, day 7 post application"}, "[30]": {"details": "100 g/ha, day 10 post application"}, "[31]": {"details": "200 g/ha, day 1 post application"}, "[32]": {"details": "200 g/ha, day 2 post application"}, "[33]": {"details": "200 g/ha, day 3 post application"}, "[34]": {"details": "200 g/ha, day 4 post application"}}}
{"smiles": "CC(C)N(C)S(=O)(=O)/N=C/c1cc(-n2c(=O)cc(C(F)(F)F)n(C)c2=O)c(F)cc1Cl", "note": "[Compound 22, 1-[4-Chloro-2-fluoro-5-[(E)-(isopropyl(methyl)sulfamoyl)iminomethyl]phenyl]-3-methyl-2,6-dioxo-4-(trifluoromethyl)pyrimidine]", "values": [{"measurement": "Average of necrosis", "setting": "[1]; [3]", "value": "C (C represents a percentage increase in necrosis relative to the control of 0.1-50)"}, {"measurement": "Average of necrosis", "setting": "[1]; [4]", "value": "C (C represents a percentage increase in necrosis relative to the control of 0.1-50)"}, {"measurement": "Average of necrosis", "setting": "[1]; [5]", "value": "C (C represents a percentage increase in necrosis relative to the control of 0.1-50)"}, {"measurement": "Average of necrosis", "setting": "[1]; [6]", "value": "C (C represents a percentage increase in necrosis relative to the control of 0.1-50)"}, {"measurement": "Average of necrosis", "setting": "[1]; [7]", "value": "B (B represents a percentage inhibition of 50-80)"}, {"measurement": "Average of necrosis", "setting": "[1]; [8]", "value": "B (B represents a percentage inhibition of 50-80)"}, {"measurement": "Average of necrosis", "setting": "[1]; [9]", "value": "B (B represents a percentage inhibition of 50-80)"}, {"measurement": "Average of necrosis", "setting": "[1]; [10]", "value": "C (C represents a percentage increase in necrosis relative to the control of 0.1-50)"}, {"measurement": "Average of necrosis", "setting": "[1]; [11]", "value": "C (C represents a percentage increase in necrosis relative to the control of 0.1-50)"}, {"measurement": "Average of necrosis", "setting": "[1]; [12]", "value": "C (C represents a percentage increase in necrosis relative to the control of 0.1-50)"}, {"measurement": "Average of necrosis", "setting": "[1]; [13]", "value": "C (C represents a percentage increase in necrosis relative to the control of 0.1-50)"}, {"measurement": "Average of necrosis", "setting": "[1]; [14]", "value": "A (A represents a percentage inhibition of 80-100)"}, {"measurement": "Average of necrosis", "setting": "[1]; [15]", "value": "A (A represents a percentage inhibition of 80-100)"}, {"measurement": "Average of necrosis", "setting": "[1]; [16]", "value": "A (A represents a percentage inhibition of 80-100)"}, {"measurement": "Average of necrosis", "setting": "[1]; [17]", "value": "C (C represents a percentage increase in necrosis relative to the control of 0.1-50)"}, {"measurement": "Average of necrosis", "setting": "[1]; [18]", "value": "C (C represents a percentage increase in necrosis relative to the control of 0.1-50)"}, {"measurement": "Average of necrosis", "setting": "[1]; [19]", "value": "C (C represents a percentage increase in necrosis relative to the control of 0.1-50)"}, {"measurement": "Average of necrosis", "setting": "[1]; [20]", "value": "B (B represents a percentage inhibition of 50-80)"}, {"measurement": "Average of necrosis", "setting": "[1]; [21]", "value": "B (B represents a percentage inhibition of 50-80)"}, {"measurement": "Average of necrosis", "setting": "[1]; [22]", "value": "B (B represents a percentage inhibition of 50-80)"}, {"measurement": "Average of necrosis", "setting": "[1]; [23]", "value": "A (A represents a percentage inhibition of 80-100)"}, {"measurement": "Average of necrosis", "setting": "[1]; [24]", "value": "C (C represents a percentage increase in necrosis relative to the control of 0.1-50)"}, {"measurement": "Average of necrosis", "setting": "[1]; [25]", "value": "C (C represents a percentage increase in necrosis relative to the control of 0.1-50)"}, {"measurement": "Average of necrosis", "setting": "[1]; [26]", "value": "C (C represents a percentage increase in necrosis relative to the control of 0.1-50)"}, {"measurement": "Average of necrosis", "setting": "[1]; [27]", "value": "B (B represents a percentage inhibition of 50-80)"}, {"measurement": "Average of necrosis", "setting": "[1]; [28]", "value": "A (A represents a percentage inhibition of 80-100)"}, {"measurement": "Average of necrosis", "setting": "[1]; [29]", "value": "A (A represents a percentage inhibition of 80-100)"}, {"measurement": "Average of necrosis", "setting": "[1]; [30]", "value": "A (A represents a percentage inhibition of 80-100)"}, {"measurement": "Average of necrosis", "setting": "[1]; [31]", "value": "C (C represents a percentage increase in necrosis relative to the control of 0.1-50)"}, {"measurement": "Average of necrosis", "setting": "[1]; [32]", "value": "C (C represents a percentage increase in necrosis relative to the control of 0.1-50)"}, {"measurement": "Average of necrosis", "setting": "[1]; [33]", "value": "C (C represents a percentage increase in necrosis relative to the control of 0.1-50)"}, {"measurement": "Average of necrosis", "setting": "[1]; [34]", "value": "B (B represents a percentage inhibition of 50-80)"}, {"measurement": "Average of necrosis", "setting": "[1]; 200 g/ha, day 5 post application", "value": "A (A represents a percentage inhibition of 80-100)"}, {"measurement": "Average of necrosis", "setting": "[1]; 200 g/ha, day 7 post application", "value": "A (A represents a percentage inhibition of 80-100)"}, {"measurement": "Average of necrosis", "setting": "[1]; 200 g/ha, day 10 post application", "value": "A (A represents a percentage inhibition of 80-100)"}, {"measurement": "Average of necrosis", "setting": "[2]; [3]", "value": "C (C represents a percentage increase in necrosis relative to the control of 0.1-50)"}, {"measurement": "Average of necrosis", "setting": "[2]; [4]", "value": "C (C represents a percentage increase in necrosis relative to the control of 0.1-50)"}, {"measurement": "Average of necrosis", "setting": "[2]; [5]", "value": "C (C represents a percentage increase in necrosis relative to the control of 0.1-50)"}, {"measurement": "Average of necrosis", "setting": "[2]; [6]", "value": "C (C represents a percentage increase in necrosis relative to the control of 0.1-50)"}, {"measurement": "Average of necrosis", "setting": "[2]; [7]", "value": "C (C represents a percentage increase in necrosis relative to the control of 0.1-50)"}, {"measurement": "Average of necrosis", "setting": "[2]; [8]", "value": "C (C represents a percentage increase in necrosis relative to the control of 0.1-50)"}, {"measurement": "Average of necrosis", "setting": "[2]; [9]", "value": "B (B represents a percentage inhibition of 50-80)"}, {"measurement": "Average of necrosis", "setting": "[2]; [10]", "value": "C (C represents a percentage increase in necrosis relative to the control of 0.1-50)"}, {"measurement": "Average of necrosis", "setting": "[2]; [11]", "value": "C (C represents a percentage increase in necrosis relative to the control of 0.1-50)"}, {"measurement": "Average of necrosis", "setting": "[2]; [12]", "value": "C (C represents a percentage increase in necrosis relative to the control of 0.1-50)"}, {"measurement": "Average of necrosis", "setting": "[2]; [13]", "value": "C (C represents a percentage increase in necrosis relative to the control of 0.1-50)"}, {"measurement": "Average of necrosis", "setting": "[2]; [14]", "value": "C (C represents a percentage increase in necrosis relative to the control of 0.1-50)"}, {"measurement": "Average of necrosis", "setting": "[2]; [15]", "value": "C (C represents a percentage increase in necrosis relative to the control of 0.1-50)"}, {"measurement": "Average of necrosis", "setting": "[2]; [16]", "value": "A (A represents a percentage inhibition of 80-100)"}, {"measurement": "Average of necrosis", "setting": "[2]; [17]", "value": "C (C represents a percentage increase in necrosis relative to the control of 0.1-50)"}, {"measurement": "Average of necrosis", "setting": "[2]; [18]", "value": "C (C represents a percentage increase in necrosis relative to the control of 0.1-50)"}, {"measurement": "Average of necrosis", "setting": "[2]; [19]", "value": "C (C represents a percentage increase in necrosis relative to the control of 0.1-50)"}, {"measurement": "Average of necrosis", "setting": "[2]; [20]", "value": "C (C represents a percentage increase in necrosis relative to the control of 0.1-50)"}, {"measurement": "Average of necrosis", "setting": "[2]; [21]", "value": "B (B represents a percentage inhibition of 50-80)"}, {"measurement": "Average of necrosis", "setting": "[2]; [22]", "value": "B (B represents a percentage inhibition of 50-80)"}, {"measurement": "Average of necrosis", "setting": "[2]; [23]", "value": "B (B represents a percentage inhibition of 50-80)"}, {"measurement": "Average of necrosis", "setting": "[2]; [24]", "value": "C (C represents a percentage increase in necrosis relative to the control of 0.1-50)"}, {"measurement": "Average of necrosis", "setting": "[2]; [25]", "value": "C (C represents a percentage increase in necrosis relative to the control of 0.1-50)"}, {"measurement": "Average of necrosis", "setting": "[2]; [26]", "value": "C (C represents a percentage increase in necrosis relative to the control of 0.1-50)"}, {"measurement": "Average of necrosis", "setting": "[2]; [27]", "value": "C (C represents a percentage increase in necrosis relative to the control of 0.1-50)"}, {"measurement": "Average of necrosis", "setting": "[2]; [28]", "value": "B (B represents a percentage inhibition of 50-80)"}, {"measurement": "Average of necrosis", "setting": "[2]; [29]", "value": "B (B represents a percentage inhibition of 50-80)"}, {"measurement": "Average of necrosis", "setting": "[2]; [30]", "value": "B (B represents a percentage inhibition of 50-80)"}, {"measurement": "Average of necrosis", "setting": "[2]; [31]", "value": "C (C represents a percentage increase in necrosis relative to the control of 0.1-50)"}, {"measurement": "Average of necrosis", "setting": "[2]; [32]", "value": "C (C represents a percentage increase in necrosis relative to the control of 0.1-50)"}, {"measurement": "Average of necrosis", "setting": "[2]; [33]", "value": "C (C represents a percentage increase in necrosis relative to the control of 0.1-50)"}, {"measurement": "Average of necrosis", "setting": "[2]; [34]", "value": "C (C represents a percentage increase in necrosis relative to the control of 0.1-50)"}]}
